Assays:
Assay in all cases: Indoor herbicide activity determination, Seed Treatment; pre-emergence (soil spray)
Assay type in all cases: in vivo
[1] = test system: Aegilops tauschii; conditions: 120 g a.i./ha, read-out: Herbicidal activities (inhibition rate) Aegilops tauschii
In short: (§1)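 Herbicide was applied to soil before weed emergence, 24 h after sowing, by tower spraying. Plants grew at constant temperature with illumination, and fresh weight compared with untreated pots gave % inhibition after 21 days.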

[2] = test system: Digitaria sanguinalis; conditions: 120 g a.i./ha, read-out: Herbicidal activities (inhibition rate) Digitaria sanguinalis
In short: as §1

[3] = test system: Eclipta prostrata; conditions: 120 g a.i./ha, read-out: Herbicidal activities (inhibition rate) Eclipta prostrata
In short: as §1

[4] = test system: Lolium multiflorum; conditions: Dosage 240 g a.i./ha
In short: as §1

[5] = test system: Eleusine indica; conditions: Dosage 240 g a.i./ha
In short: as §1

[6] = test system: Leptochloa chinensis; conditions: Dosage 240 g a.i./ha
In short: as §1

[7] = test system: Alopecurus japonicus; conditions: Dosage 240 g a.i./ha
In short: as §1

[8] = test system: Alopecurus myosuroides; conditions: Dosage 240 g a.i./ha
In short: as §1

[9] = test system: Cyperus iria; conditions: 120 g a.i./ha, read-out: Herbicidal activities (inhibition rate) Cyperus iria
In short: as §1

| Compound | inhibition at 120 g/ha [1] | inhibition at 120 g/ha [2] | inhibition at 120 g/ha [3] | Herbicidal activity (inhibition rate class), Lolium multiflorum [4] | Herbicidal activity (inhibition rate class), Eleusine indica [5] | Herbicidal activity (inhibition rate class), Leptochloa chinensis [6] | Herbicidal activity (inhibition rate class), Alopecurus japonicus [7] | Herbicidal activity (inhibition rate class), Alopecurus myosuroides [8] | inhibition at 120 g/ha [9] |
| --- | --- | --- | --- | --- | --- | --- | --- | --- | --- |
| CC1(C(=O)N[C@H]2C=C[C@@H](C(=O)O)C2)CC(c2cc(F)cc(OC(F)(F)F)c2)=NO1 (stereo partly drawn) [I-488] | 80 to 100% | 60 to 80% | 80 to 100% | A (A indicates that the inhibition rate was greater than or equal to 80% to 100%) | A (A indicates that the inhibition rate was greater than or equal to 80% to 100%) | A (A indicates that the inhibition rate was greater than or equal to 80% to 100%) | A (A indicates that the inhibition rate was greater than or equal to 80% to 100%) | A (A indicates that the inhibition rate was greater than or equal to 80% to 100%) | 80 to 100% |
| CSCCOC(=O)[C@@H]1C=C[C@H](NC(=O)C2(C)CC(c3cc(F)cc(OC(F)(F)F)c3)=NO2)C1 (stereo partly drawn) [I-490] | 80 to 100% | 80 to 100% | 80 to 100% | A (A indicates that the inhibition rate was greater than or equal to 80% to 100%) | A (A indicates that the inhibition rate was greater than or equal to 80% to 100%) | A (A indicates that the inhibition rate was greater than or equal to 80% to 100%) | A (A indicates that the inhibition rate was greater than or equal to 80% to 100%) | A (A indicates that the inhibition rate was greater than or equal to 80% to 100%) | 80 to 100% |
| CC1(C(=O)N[C@H]2C=C[C@@H](C(=O)OCCS(C)(=O)=O)C2)CC(c2cc(F)cc(OC(F)(F)F)c2)=NO1 (stereo partly drawn) [I-492] | 80 to 100% | 80 to 100% | 80 to 100% | A (A indicates that the inhibition rate was greater than or equal to 80% to 100%) | A (A indicates that the inhibition rate was greater than or equal to 80% to 100%) | A (A indicates that the inhibition rate was greater than or equal to 80% to 100%) | A (A indicates that the inhibition rate was greater than or equal to 80% to 100%) | A (A indicates that the inhibition rate was greater than or equal to 80% to 100%) | 60 to 80% |
| CC1(C(=O)N[C@H]2C=C[C@@H](C(=O)O)C2)CC(c2cc(F)cc(C(F)(F)F)c2)=NO1 (stereo partly drawn) [I-493] | 80 to 100% | 60 to 80% | 60 to 80% | A (A indicates that the inhibition rate was greater than or equal to 80% to 100%) | A (A indicates that the inhibition rate was greater than or equal to 80% to 100%) | A (A indicates that the inhibition rate was greater than or equal to 80% to 100%) | A (A indicates that the inhibition rate was greater than or equal to 80% to 100%) | A (A indicates that the inhibition rate was greater than or equal to 80% to 100%) | 80 to 100% |

— patent EP4722201A1, “3-PHENYLISOXAZOLINE-5-CARBOXAMIDE COMPOUND, AND PREPARATION METHOD THEREFOR, HERBICIDAL COMPOSITION THEREOF AND USE THEREOF” (Jiangsu Flag Chemical Industry Co., Ltd, priority 2023, dated 2024)
